Experimental data published in patent publication US20260365670A1, “EGFR INHIBITORS AND USES THEREOF” (DIZAL (JIANGSU) PHARMACEUTICAL CO., LTD., priority 2022, published 2026).
Like-named read-outs stand apart in the source and are kept apart here.

How the values were obtained:
EGFR wild type = target: T1, EGFR wild type (Homo sapiens, UniProt P00533); assay: Inhibition of EGFR wild type biochemical enzymatic activity (HTRF); details: EGFR WT, 1 mM ATP, 1 h, room temperature, read-out: IC50 (nM) @WT
T1 construct: purchased Carna Bio
Method in brief: (§1)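 For IC50 determination by four-parameter logistic fit, EDTA-quenched 1 h room-temperature reactions (1 mM ATP, 1 μM TK Substrate-biotin) were read by HTRF. The 665/615 nm emission ratio after 320 nm excitation served as the activity signal.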

EGFR L858R = target: T2, EGFR L858R (Homo sapiens, UniProt P00533, L858R); assay: Inhibition of EGFR L858R biochemical enzymatic activity (HTRF); details: 1 mM ATP, 1 h, room temperature, read-out: IC50 (nM) @L858R
T2 construct: purchased Carna Bio
Method in brief: as §1

EGFR L858R/T790M = target: T3, EGFR L858R/T790M (Homo sapiens, UniProt P00533, L858R/T790M); assay: Inhibition of EGFR L858R/T790M biochemical enzymatic activity (HTRF); details: EGFR L858R-T790M, 1 mM ATP, 1 h, room temperature, read-out: IC50 (nM) @L858R-T790M
T3 construct: purchased Carna Bio
Method in brief: as §1

EGFR Exon19Del = target: T4, EGFR Exon19Del (Homo sapiens, UniProt P00533, DEL746-750); assay: Inhibition of EGFR Exon19Del biochemical enzymatic activity (HTRF); details: EGFR Del19, 1 mM ATP, 1 h, room temperature, read-out: IC50 @Del19
T4 construct: purchased Carna Bio
Method in brief: as §1

EGFR Exon19Del/T790M = target: T5, EGFR Exon19Del/T790M (Homo sapiens, UniProt P00533, DEL746-750/T790M); assay: Inhibition of EGFR Exon19Del/T790M biochemical enzymatic activity (HTRF); details: EGFR Del19-T790M, 1 mM ATP, 1 h, room temperature, read-out: IC50 (nM) @Del19-T790M
T5 construct: purchased Carna Bio
Method in brief: as §1

EGFR[T790M/C797S/L858R] = target: T6, EGFR[T790M/C797S/L858R] (Homo sapiens, UniProt P00533, C797S/L858R/T790M); assay: Inhibition of EGFR[T790M/C797S/L858R] biochemical enzymatic activity (HTRF); details: EGFR T790M-C797S-L858R, 1 mM ATP, 1 h, room temperature, read-out: IC50 (nM) @T790M- C797S - L858R
T6 construct: purchased Carna Bio
Method in brief: as §1

[1] = target: T7, EGFR[T790M/C797S/d746-750] (Homo sapiens, UniProt P00533, C797S/DEL746-750/T790M); assay: Inhibition of EGFR[T790M/C797S/d746-750] biochemical enzymatic activity (HTRF); details: EGFR T790M-C797S-Del19, 1 mM ATP, 1 h, room temperature, read-out: IC50 (nM) @T790M - C797S - Del19
T7 construct: purchased Carna Bio
Method in brief: as §1

EGFR (d746-750 C797S) = target: T8, EGFR (d746-750 C797S) (Homo sapiens, UniProt P00533, C797S/DEL746-750); assay: Inhibition of EGFR (d746-750 C797S) biochemical enzymatic activity (HTRF); details: EGFR Del19-C797S, 1 mM ATP, 1 h, room temperature, read-out: IC50 (nM) @Del19-C797S
T8 construct: purchased signalchem
Method in brief: as §1

EGFR (C797S L858R) = target: T9, EGFR (C797S L858R) (Homo sapiens, UniProt P00533, C797S/L858R); assay: Inhibition of EGFR (C797S L858R) biochemical enzymatic activity (HTRF); details: EGFR L858-C797S, 1 mM ATP, 1 h, room temperature, read-out: IC50 (nM) @L858-C797S
T9 construct: purchased signalchem
Method in brief: as §1

[2] = tested on: Ba/F3 cells expressing EGFR mutations; assay: Cell proliferation assay, Ba/F3 cells expressing EGFR mutations (CellTiter-Glo, 72 hours); assay type: cell-based; details: CellTiter-Glo
Method in brief: (§2)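 Seed Ba/F3 at 5000 cells/well and PC-9 at 500 cells/well (10% FBS RPMI1640); incubate overnight; add compound dilution series; read a G0 plate; incubate; read G3; GI50 from best-fit curve.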

PC-9 = assay: Cell proliferation assay, PC-9 cells (CellTiter-Glo, 72 hours); assay type: cell-based; details: PC9 cells, CellTiter-Glo, read-out: PC9 GI50
Method in brief: as §2

A-431 = assay: Cell proliferation GI50, A-431 cells (Table 6); assay type: cell-based
[3] = Mus musculus, BaF3, 72 h, BaF3 cells, EGFR DEL19-C797S, read-out: DEL19-C797S/BaF3 GI50
[4] = Mus musculus, BaF3, 72 h, BaF3 cells, EGFR DEL19-T790-C797S, read-out: DEL19-T790-C797S/BaF3 GI50
[5] = Mus musculus, BaF3, 72 h, BaF3 cells, EGFR L858R, read-out: L858R/BaF3 GI50
[6] = Mus musculus, BaF3, 72 h, BaF3 cells, EGFR L858R-C797S, read-out: L858R-C797S/BaF3 GI50
[7] = Mus musculus, BaF3, 72 h, BaF3 cells, EGFR L858R-T790-C797S, read-out: L858R-T790-C797S/BaF3 GI50
[8] = Mus musculus, BaF3, 72 h, BaF3 cells, EGFR L858R-T790M, read-out: L858R-T790M/BaF3 GI50
[9] = Mus musculus, BaF3, 72 h, EGFR DEL19-T790M, read-out: DEL19-T790M GI50
[10] = Homo sapiens, A-431, A-431 cells
[11] = BaF3 cells, EGFR DEL19-C797S, read-out: DEL19-C797S/BaF3 GI50
[12] = BaF3 cells, EGFR DEL19-T790-C797S, read-out: DEL19-T790-C797S/BaF3 GI50
[13] = BaF3 cells, EGFR L858R, read-out: L858R/BaF3 GI50
[14] = BaF3 cells, EGFR L858R-C797S, read-out: L858R-C797S/BaF3 GI50
[15] = BaF3 cells, EGFR L858R-T790-C797S, read-out: L858R-T790-C797S/BaF3 GI50
[16] = BaF3 cells, EGFR L858R-T790M, read-out: L858R-T790M/BaF3 GI50
[17] = EGFR DEL19-T790M, read-out: DEL19-T790M GI50

T4 sequence (P00533 with tags, fused parts or gaps DEL746-750 limits assumed): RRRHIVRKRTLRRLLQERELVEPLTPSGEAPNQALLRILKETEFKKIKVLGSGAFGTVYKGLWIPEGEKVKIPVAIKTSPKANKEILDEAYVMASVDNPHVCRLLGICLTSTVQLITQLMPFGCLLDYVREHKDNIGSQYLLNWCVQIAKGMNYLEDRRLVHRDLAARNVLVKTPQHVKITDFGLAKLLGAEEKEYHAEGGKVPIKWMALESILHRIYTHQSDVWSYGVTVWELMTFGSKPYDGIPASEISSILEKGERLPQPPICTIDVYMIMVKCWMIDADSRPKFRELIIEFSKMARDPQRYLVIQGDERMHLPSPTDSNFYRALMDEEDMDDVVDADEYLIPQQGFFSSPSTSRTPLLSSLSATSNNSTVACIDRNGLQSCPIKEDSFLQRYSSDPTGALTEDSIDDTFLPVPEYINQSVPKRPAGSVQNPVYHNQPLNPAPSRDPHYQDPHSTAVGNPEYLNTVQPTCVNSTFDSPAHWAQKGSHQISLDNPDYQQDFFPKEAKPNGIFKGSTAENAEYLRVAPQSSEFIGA
T1 sequence (P00533 25-1210): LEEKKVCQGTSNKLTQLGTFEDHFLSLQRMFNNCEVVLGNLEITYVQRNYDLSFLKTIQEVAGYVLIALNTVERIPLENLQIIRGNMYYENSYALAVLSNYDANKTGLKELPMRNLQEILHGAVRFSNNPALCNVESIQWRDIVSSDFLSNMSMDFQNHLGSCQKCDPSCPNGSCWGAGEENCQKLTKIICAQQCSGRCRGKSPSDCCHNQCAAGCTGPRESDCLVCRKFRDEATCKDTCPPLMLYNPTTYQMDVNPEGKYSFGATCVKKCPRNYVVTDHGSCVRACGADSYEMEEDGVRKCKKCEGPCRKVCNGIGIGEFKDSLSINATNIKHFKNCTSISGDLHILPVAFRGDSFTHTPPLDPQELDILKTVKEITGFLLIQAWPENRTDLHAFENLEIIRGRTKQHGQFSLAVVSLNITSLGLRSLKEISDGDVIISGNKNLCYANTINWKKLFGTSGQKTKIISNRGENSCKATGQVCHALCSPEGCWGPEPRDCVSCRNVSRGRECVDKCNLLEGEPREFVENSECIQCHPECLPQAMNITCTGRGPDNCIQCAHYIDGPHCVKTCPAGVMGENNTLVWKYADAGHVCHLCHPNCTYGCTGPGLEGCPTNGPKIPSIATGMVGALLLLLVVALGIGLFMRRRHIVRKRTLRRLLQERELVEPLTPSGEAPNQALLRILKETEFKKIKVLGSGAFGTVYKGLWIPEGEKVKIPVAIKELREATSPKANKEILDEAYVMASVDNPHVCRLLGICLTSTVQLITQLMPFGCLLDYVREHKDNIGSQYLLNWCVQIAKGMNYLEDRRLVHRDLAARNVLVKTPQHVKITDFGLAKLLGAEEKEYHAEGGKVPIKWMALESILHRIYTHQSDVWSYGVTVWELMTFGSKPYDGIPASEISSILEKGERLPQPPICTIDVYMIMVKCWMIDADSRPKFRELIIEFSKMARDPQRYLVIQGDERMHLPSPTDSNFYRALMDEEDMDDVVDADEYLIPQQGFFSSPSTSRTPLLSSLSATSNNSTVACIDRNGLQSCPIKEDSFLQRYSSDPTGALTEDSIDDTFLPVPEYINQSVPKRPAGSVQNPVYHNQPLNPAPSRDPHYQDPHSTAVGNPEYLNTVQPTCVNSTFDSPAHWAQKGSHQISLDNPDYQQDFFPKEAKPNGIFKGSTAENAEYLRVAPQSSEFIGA
T8 sequence (P00533 with tags, fused parts or gaps DEL746-750/C797S limits assumed): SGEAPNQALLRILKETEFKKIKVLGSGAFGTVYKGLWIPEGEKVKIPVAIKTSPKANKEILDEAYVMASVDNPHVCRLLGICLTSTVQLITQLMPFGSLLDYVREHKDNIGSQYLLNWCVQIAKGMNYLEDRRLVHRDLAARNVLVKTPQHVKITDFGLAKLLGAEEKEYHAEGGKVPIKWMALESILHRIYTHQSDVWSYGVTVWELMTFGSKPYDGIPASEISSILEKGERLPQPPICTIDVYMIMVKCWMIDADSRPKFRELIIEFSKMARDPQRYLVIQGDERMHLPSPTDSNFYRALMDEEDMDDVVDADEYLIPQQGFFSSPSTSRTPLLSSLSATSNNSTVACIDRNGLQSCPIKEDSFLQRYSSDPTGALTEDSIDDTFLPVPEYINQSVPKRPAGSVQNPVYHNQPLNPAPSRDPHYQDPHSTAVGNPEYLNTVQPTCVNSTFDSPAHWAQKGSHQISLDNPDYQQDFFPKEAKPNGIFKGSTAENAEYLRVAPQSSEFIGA
T9 sequence (P00533 25-1210 C797S/L858R): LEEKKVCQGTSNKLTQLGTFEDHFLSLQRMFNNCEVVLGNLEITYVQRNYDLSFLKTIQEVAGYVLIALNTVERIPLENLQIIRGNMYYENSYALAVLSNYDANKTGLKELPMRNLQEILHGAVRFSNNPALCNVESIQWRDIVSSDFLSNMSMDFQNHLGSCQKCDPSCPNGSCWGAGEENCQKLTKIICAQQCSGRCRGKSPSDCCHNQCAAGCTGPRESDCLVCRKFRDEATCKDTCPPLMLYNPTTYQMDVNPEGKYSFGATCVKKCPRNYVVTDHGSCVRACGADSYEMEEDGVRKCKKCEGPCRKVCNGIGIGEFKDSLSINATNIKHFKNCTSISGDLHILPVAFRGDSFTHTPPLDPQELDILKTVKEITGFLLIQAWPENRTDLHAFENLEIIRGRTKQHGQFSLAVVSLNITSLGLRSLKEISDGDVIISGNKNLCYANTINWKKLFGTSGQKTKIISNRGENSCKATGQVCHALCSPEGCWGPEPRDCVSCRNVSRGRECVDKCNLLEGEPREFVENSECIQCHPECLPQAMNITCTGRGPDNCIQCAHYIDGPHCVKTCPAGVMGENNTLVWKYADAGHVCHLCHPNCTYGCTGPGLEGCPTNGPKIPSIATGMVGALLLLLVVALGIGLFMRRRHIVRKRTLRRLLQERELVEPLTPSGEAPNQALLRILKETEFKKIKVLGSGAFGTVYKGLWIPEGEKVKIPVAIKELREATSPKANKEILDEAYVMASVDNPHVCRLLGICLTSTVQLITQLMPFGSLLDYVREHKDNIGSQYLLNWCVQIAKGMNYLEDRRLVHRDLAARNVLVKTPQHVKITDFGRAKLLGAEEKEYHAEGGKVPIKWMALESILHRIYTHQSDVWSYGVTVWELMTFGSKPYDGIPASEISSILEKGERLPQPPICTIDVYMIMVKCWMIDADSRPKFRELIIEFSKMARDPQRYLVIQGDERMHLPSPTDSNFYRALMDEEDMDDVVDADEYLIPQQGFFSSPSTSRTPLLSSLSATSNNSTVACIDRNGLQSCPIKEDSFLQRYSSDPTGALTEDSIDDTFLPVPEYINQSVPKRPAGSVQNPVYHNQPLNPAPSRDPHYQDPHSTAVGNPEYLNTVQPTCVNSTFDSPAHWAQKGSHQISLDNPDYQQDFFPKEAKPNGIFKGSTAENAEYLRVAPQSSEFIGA
T2 sequence (P00533 25-1210 L858R): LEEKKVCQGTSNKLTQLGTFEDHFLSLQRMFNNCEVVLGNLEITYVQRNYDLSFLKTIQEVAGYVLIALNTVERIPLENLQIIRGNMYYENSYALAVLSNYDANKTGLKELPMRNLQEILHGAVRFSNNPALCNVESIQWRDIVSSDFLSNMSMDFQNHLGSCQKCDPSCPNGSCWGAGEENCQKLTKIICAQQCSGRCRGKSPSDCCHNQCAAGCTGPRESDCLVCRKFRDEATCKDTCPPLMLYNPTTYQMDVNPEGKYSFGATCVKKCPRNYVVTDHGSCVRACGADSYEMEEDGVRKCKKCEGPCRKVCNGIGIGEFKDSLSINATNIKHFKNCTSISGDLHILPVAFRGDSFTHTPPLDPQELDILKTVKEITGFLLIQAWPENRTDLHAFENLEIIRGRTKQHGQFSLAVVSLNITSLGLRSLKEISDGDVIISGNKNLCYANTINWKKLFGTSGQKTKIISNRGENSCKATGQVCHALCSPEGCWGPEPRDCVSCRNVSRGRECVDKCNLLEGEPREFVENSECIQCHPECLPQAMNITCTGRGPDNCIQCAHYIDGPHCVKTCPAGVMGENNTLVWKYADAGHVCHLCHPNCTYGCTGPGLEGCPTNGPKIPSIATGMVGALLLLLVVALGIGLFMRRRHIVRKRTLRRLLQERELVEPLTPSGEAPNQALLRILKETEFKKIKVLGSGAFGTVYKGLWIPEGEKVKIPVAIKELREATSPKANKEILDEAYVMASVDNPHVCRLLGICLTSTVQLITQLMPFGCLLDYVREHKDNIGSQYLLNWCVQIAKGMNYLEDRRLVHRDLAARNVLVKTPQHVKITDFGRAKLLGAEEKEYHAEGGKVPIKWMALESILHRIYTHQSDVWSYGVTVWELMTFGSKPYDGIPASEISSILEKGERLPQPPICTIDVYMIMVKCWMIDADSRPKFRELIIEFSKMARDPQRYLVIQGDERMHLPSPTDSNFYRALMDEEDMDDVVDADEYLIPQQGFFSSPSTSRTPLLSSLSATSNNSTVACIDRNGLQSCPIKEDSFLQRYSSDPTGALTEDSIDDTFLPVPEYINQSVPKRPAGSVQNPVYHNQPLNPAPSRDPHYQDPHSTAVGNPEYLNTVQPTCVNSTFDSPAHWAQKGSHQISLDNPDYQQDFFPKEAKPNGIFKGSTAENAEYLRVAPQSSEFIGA

SMILES	IC50 (EGFR wild type) [nM]	IC50 (EGFR L858R) [nM]	IC50 (EGFR L858R/T790M) [nM]	IC50 (EGFR Exon19Del) [nM]	IC50 (EGFR Exon19Del/T790M) [nM]	IC50 (EGFR[T790M/C797S/L858R]) [nM]	IC50 [1] [nM]	IC50 (EGFR (d746-750 C797S)) [nM]	IC50 (EGFR (C797S L858R)) [nM]	GI50 (A-431; [10]) [nM]	GI50 [2, 11] [nM]	GI50 [2, 12] [nM]	GI50 [2, 13] [nM]	GI50 [2, 14] [nM]	GI50 [2, 15] [nM]	GI50 [2, 16] [nM]	GI50 [2, 17] [nM]	GI50 (PC-9) [nM]	other results
Cn1ncc2c1OCCN1CCCCC(C)(C1)n1c(nc3ccc(N4CCOCC4)cc31)NC(=O)c1cc-2c(=O)n(C)c1 (stereo not drawn) [Example A13, 1,15,21-Trimethyl-5-(morpholin-4-yl)-23-oxa-2,9,11,15,20,21,26heptaazahexacyclo[24.4.1.1^{13,17}.0^{2,10}.0^{3,8}.0^{18,22}]dotriac onta-3,5,7,9,13,17(32),18(22),19-octaene-12,16-dione]	> 5000	> 5000	> 5000	932	757	> 5000	728	780	> 5000	357	–	–	–	–	–	–	–	–	GI50 [2, 3]: 148 nM; GI50 [2, 4]: 192 nM; GI50 [2, 5]: 234 nM; GI50 [2, 6]: 232 nM; GI50 [2, 7]: 280 nM; GI50 [2, 8]: 411 nM; GI50 [2, 9]: 192 nM; GI50 (PC-9; Homo sapiens, PC-9, 72 h): 292 nM
CCN1CCN(c2ccc3nc4n(c3c2)C23CCC(CN(CCOc5c(cnn5C)-c5cc(cn(C)c5=O)C(=O)N4)C2)C3)CC1 (single isomer, unassigned) [Example A107B]	20	3	2.7	1.8	1.8	2.1	2	0.79	1.9	–	0.63	1.1	1	2.4	1.5	4.1	1.5	5.2	GI50 (A-431; A-431 cells): 267 nM
CN1C2CC1CN(c1ccc3nc4n(c3c1)C13CCC(CN(CCOc5c(cnn5C)-c5cc(cn(C)c5=O)C(=O)N4)C1)C3)C2 (single isomer, unassigned) [Example A98B]	21	3.3	2.7	1.8	2.9	2.3	2.7	1.3	4.1	280	0.64	1.5	0.54	2.8	1.1	3	1.5	7.6	–
CN1CCC2(CCN(c3ccc4nc5n(c4c3)C34CCC(CN(CCOc6c(cnn6C)-c6cc(cn(C)c6=O)C(=O)N5)C3)C4)C2)C1 (single isomer, unassigned) [Example A81A]	> 5000	1530	> 5000	404	> 5000	> 5000	> 5000	389	> 5000	1320	107	258	319	170	381	350	178	247	–
C[C@@H]1CCCOc2c(cnn2C)-c2cc(cn(C)c2=O)C(=O)Nc2nc3ccc(N4CCC(N(C)C)C(F)C4)cc3n2C1 (stereo partly drawn) [Example A38]	159	9.7	2.7	1.3	1.6	1.7	1.7	0.81	2.9	315	–	–	–	–	–	–	–	–	GI50 [2, 3]: 1.4 nM; GI50 [2, 4]: 4.8 nM; GI50 [2, 5]: 4.1 nM; GI50 [2, 6]: 4.2 nM; GI50 [2, 7]: 3.2 nM; GI50 [2, 8]: 13 nM; GI50 [2, 9]: 7.3 nM; GI50 (PC-9; Homo sapiens, PC-9, 72 h): 6.2 nM
CN(C)[C@@H]1CCN(c2ccc3nc4n(c3c2)C23CCC(CN(CCOc5c(cnn5C)-c5cc(cn(C)c5=O)C(=O)N4)C2)C3)C1 (single isomer, unassigned) [Example A66D]	18	3.7	1.7	2.7	2	2.1	1.6	1.1	3.7	473	0.68	1.5	1.7	3.2	1.4	7.2	2	4.2	–
CN(C)C1CN(c2ccc3nc4n(c3c2)C23CCC(CN(CCOc5c(cnn5C)-c5cc(cn(C)c5=O)C(=O)N4)C2)C3)CC1F (single isomer, unassigned) [Example A84D, 15,21-Dimethyl-5-[4-fluoro-3-(N,N-dimethylamino)pyrrolidinyl]-23-oxa-2,9,11,15,20,21,26-heptaazaheptacyclo[24.4.1.1^{1,28}.1^{13,17}.0^{2,10}.0^{3,8}.0^{18,22}]tritriaconta-3,5,7,9,13,17(33),18(22),19-octaene-12,16-dione]	196	21	4.6	3.1	3.9	4.4	3.3	2.4	9.8	–	0.77	13	14	16	31	40	14	29	GI50 (A-431; A-431 cells): 1770 nM
Cn1ncc2c1OCCN1CC3CCC(C3)(C1)n1c(nc3ccc(N4CCC(N5CCOCC5)C4)cc31)NC(=O)c1cc-2c(=O)n(C)c1 (single isomer, unassigned) [Example A104A]	> 5000	4680	> 5000	1280	> 5000	> 5000	> 5000	1390	> 5000	1940	217	503	795	402	675	1000	473	568	–
